Source: the Deep4Chem optical property database
Each block holds one compound with its values, some of them ahead of it.

Assay: solvent given as SMILES

- absorption maximum (in ClCCl): 507 nm
SMILES: COC(=O)c1ccc(C2=C(/C=C/c3ccc(OC)cc3)O[B-](F)(F)[O+]=C2/C=C/c2ccc(OC)cc2)cc1

- absorption maximum (in ClC(Cl)Cl): 402 nm
SMILES: O[Si](c1c2ccccc2cc2ccccc12)(c1c2ccccc2cc2ccccc12)c1c2ccccc2cc2ccccc12

- absorption maximum (in C1CCOC1): 422 nm
- absorption maximum (in CC#N): 413 nm
- absorption maximum (in CN(C)C=O): 426 nm
- absorption maximum (in ClC(Cl)Cl): 425 nm
- absorption maximum (in c1ccccc1): 426 nm
SMILES: CN(C)c1ccc(C#Cc2ccc(C#Cc3ccc(C#Cc4ccccc4C#N)cc3C#N)cc2C#N)cc1

- absorption maximum (in C1CCCCC1): 340 nm
- absorption maximum (in CO): 340 nm
SMILES: Clc1ccc(/C=C(\c2ccccc2)c2nc3ccccc3s2)cc1

- absorption maximum (in C1CCCCC1): 392 nm
- absorption maximum (in CC#N): 393 nm
- absorption maximum (in CO): 392 nm
- absorption maximum (in ClCCl): 396 nm
SMILES: COc1ccc2c3c(OC)c4ccccc4c(OC)c3n(C)c2c1

- absorption maximum (in CS(C)=O): 365 nm
SMILES: CSc1ccc(-c2nc3sc4ccccc4c3s2)cc1

- absorption maximum (in CCO): 329 nm
SMILES: Cc1cc(=O)oc2cc(-c3cn(Cc4ccccc4)nn3)ccc12

- absorption maximum (in ClCCl): 388 nm
SMILES: CCCCCCN1C(=O)c2cccc3c(-c4ccc(-c5cc(-c6ccccc6)nn5-c5ccccc5)s4)ccc(c23)C1=O

- absorption maximum (in CC#N): 351 nm
- absorption maximum (in CCCCCC): 346 nm
SMILES: Cc1cccc(C)c1Nc1ccc(/C=C/c2cccnc2)cc1

- absorption maximum (in C1CCOC1): 348.89 nm
SMILES: COC(=O)C1(C(=O)OC)Cc2c(C#Cc3ccc(OC)cc3)c(-c3ccc(OC)cc3)c3c(-c4ccccc4)c(-c4ccccc4)c(-c4ccccc4)c(-c4ccccc4)c3c2C1

- absorption maximum (in ClCCl): 417 nm
SMILES: Brc1ccc(N(c2ccc(/C=C/c3ccncn3)cc2)c2ccc(/C=C/c3ccncn3)cc2)cc1

- absorption maximum (in CO): 397 nm
SMILES: c1ccc(N(c2ccccc2)c2ccc(-c3ncc(-c4ccncc4)s3)cc2)cc1

- absorption maximum (in ClCCl): 737 nm
SMILES: F[B-]1(F)n2c(-c3ccccc3)c3ccc4ccccc4c3c2N=C2c3c(ccc4ccccc34)C(c3ccccc3)=[N+]21

- absorption maximum (in ClCCl): 358 nm
SMILES: CC(=O)c1ccc(-c2cccc3ncc(-c4ccccc4)n23)cc1

- absorption maximum (in ClC(Cl)Cl): 348 nm
SMILES: CC(C)(C)c1ccc2oc3nc4oc5ccc(N6c7ccccc7Sc7ccccc76)cc5c4cc3c2c1

- absorption maximum (in ClC(Cl)Cl): 351 nm
SMILES: CC(=O)OCCN1C(=O)c2cccc3c(Oc4ccc(C#N)cc4)ccc(c23)C1=O

- absorption maximum (in ClCCl): 310 nm
SMILES: COc1cc2c(cc1OC)C1=C[C@H](c3ccccc3)C3(C(C#N)=C(C#N)N1CC2)c1ccccc1-c1ccccc13

- absorption maximum (in C1COCCO1): 395 nm
- absorption maximum (in CC#N): 396 nm
- absorption maximum (in CCCCCCC): 393 nm
- absorption maximum (in CO): 399 nm
SMILES: C(/C=C/c1ccc(N(c2ccccc2)c2ccccc2)cc1)=C\c1ccncc1

- absorption maximum (in C1CCOC1): 312 nm
SMILES: O=C(c1ccc(N2c3ccccc3Oc3ccccc32)cc1)c1ccc2sc3ccccc3c2c1

- absorption maximum (in CO): 784 nm
SMILES: CC1(C)C(/C=C/C2=C(Cl)C(=C/C=C3/N(Cc4ccccc4)c4ccccc4C3(C)C)/CCC2)=[N+](Cc2ccccc2)c2ccccc21

- absorption maximum (in CC#N): 316 nm
- absorption maximum (in CO): 314 nm
- absorption maximum (in O): 312 nm
SMILES: CSc1ccc2c(c1)N(CCCN1CCN(C)CN1C)c1ccccc1S2

- absorption maximum (in ClCCl): 391 nm
SMILES: Cc1c(C(=O)c2ccccc2)c2ccc3cccc4c5cccc6ccc1c(c65)c2c34

- absorption maximum (in ClCCl): 341 nm
SMILES: O=c1oc2ccccc2cc1-c1ccc(-c2ccc(-c3cc4ccccc4oc3=O)cc2)cc1

- absorption maximum (in ClCCl): 377 nm
SMILES: CC(C)(C)c1ccc2c(c1)c1ncncc1c1c3ccccc3sc21

- absorption maximum (in ClC(Cl)Cl): 626 nm
SMILES: Cc1cc(C)c(C2=C3C=CC4=[N+]3[B-]3(Oc5ccccc54)Oc4ccccc4-c4ccc2n43)c(C)c1 (stereo not given)

- absorption maximum (in CS(C)=O): 322.8 nm
SMILES: Cc1ccc2nc(-c3cc(-c4nc5ccc(C)cc5[nH]4)cc(-c4nc5ccc(C)cc5[nH]4)c3)[nH]c2c1

- absorption maximum (in ClCCl): 370 nm
SMILES: CCOC(=O)/N=c1/oc2cc(OC)ccc2cc1C#N

- absorption maximum (in ClCCl): 540 nm
SMILES: CCCN1c2ccccc2Sc2cc(C#CC3=C4C=CC=[N+]4[B-](F)(F)n4cccc43)ccc21

- absorption maximum (in O): 462 nm
SMILES: CC[n+]1c(-c2ccccc2)c2cc(-n3cccc3)ccc2c2ccc(N)cc21

- absorption maximum (in CC#N): 252 nm
- absorption maximum (in CCCCCC): 252 nm
SMILES: COc1ccc(-n2cccc2)cc1

- absorption maximum (in CC#N): 380 nm
- absorption maximum (in CCCCCC): 387 nm
- absorption maximum (in CO): 382 nm
- absorption maximum (in CS(C)=O): 392 nm
- absorption maximum (in ClC(Cl)Cl): 385 nm
SMILES: COc1c(/C=N/Nc2ccc(C#N)cc2)ccc2ccccc12

Continued, compound first:

SMILES: c1ccc(-c2nc(-c3ccc(-c4ccc(-c5nc(-c6ccccc6)c(-c6ccccc6)o5)cc4)cc3)oc2-c2ccccc2)cc1
- absorption maximum (in C1COCCO1): 353 nm

SMILES: CC(C)(C)c1ccc(-c2cc(-c3ccc(-c4cc(-c5ccc(C(C)(C)C)cc5)c(C(=O)NCc5ccccc5)s4)s3)sc2C(=O)NCc2ccccc2)cc1
- absorption maximum (in ClCCl): 394 nm

SMILES: O=S1(=O)c2ccccc2Oc2cc(N3c4ccccc4C4(c5ccccc53)c3ccccc3N(c3ccc5c(c3)Oc3ccccc3S5(=O)=O)c3ccccc34)ccc21
- absorption maximum (in Cc1ccccc1): 359.89 nm

SMILES: Cc1cc(=O)[nH]c(=O)[nH]1
- absorption maximum (in CC#N): 256 nm

SMILES: CN(C)c1ccc(C2=Cc3ccc4ccccc4[n+]3[B-](F)(F)O2)cc1
- absorption maximum (in C1CCOC1): 472 nm
- absorption maximum (in C1COCCO1): 472 nm
- absorption maximum (in CC1CCCCC1): 473 nm
- absorption maximum (in CC#N): 468 nm
- absorption maximum (in CCOC(C)=O): 468 nm
- absorption maximum (in CCOCC): 467 nm
- absorption maximum (in CN(C)C=O): 474 nm
- absorption maximum (in CO): 468 nm
- absorption maximum (in COC(C)=O): 468 nm
- absorption maximum (in ClC(Cl)Cl): 477 nm

SMILES: CCCCCCN1C(=O)c2cccc3c(-c4sc(-c5ccc6c7c(cccc57)C(=O)N(CCCCCC)C6=O)c5c4OCCO5)ccc(c23)C1=O
- absorption maximum (in ClC(Cl)Cl): 416 nm

SMILES: CCCCCCCCc1ccc(-c2c3cc(-c4cc(CCCCCCCC)c(-c5ccc(-c6sc(/C=C7\SC(=S)N(CC)C7=O)cc6CCCCCCCC)s5)s4)sc3c(-c3ccc(CCCCCCCC)s3)c3cc(-c4cc(CCCCCCCC)c(-c5ccc(-c6sc(/C=C7\SC(=S)N(CC)C7=O)cc6CCCCCCCC)s5)s4)sc23)s1
- absorption maximum (in ClC(Cl)Cl): 509 nm

SMILES: COCCOCCOCCOc1cc(C=O)c(OCCOCCOCCOC)cc1C=O
- absorption maximum (in CC(C)(C)O): 393 nm
- absorption maximum (in CC(C)CO): 390 nm
- absorption maximum (in CC(C)O): 391 nm
- absorption maximum (in CCCCO): 378 nm
- absorption maximum (in CCCO): 367 nm
- absorption maximum (in CCO): 364 nm
- absorption maximum (in CN(C)C=O): 393 nm
- absorption maximum (in CNC=O): 350 nm
- absorption maximum (in CO): 354 nm
- absorption maximum (in NC=O): 354 nm
- absorption maximum (in O): 394 nm

SMILES: COC(=O)/C=C/C1=CC2=C(c3c(C)cc(C)cc3C)c3cc(/C=C/C(=O)OC)cn3[B-](F)(F)[N+]2=C1
- absorption maximum (in ClCCl): 577 nm

SMILES: CN(C)c1ccc2c(-c3cc(C(=O)[O-])ccc3C(=O)[O-])c3ccc(=[N+](C)C)cc-3oc2c1
- absorption maximum (in CCO): 538 nm
- absorption maximum (in O): 549 nm

SMILES: C[Si]1(C)c2ccc(-c3ccc(N(c4ccccc4)c4ccccc4)cc3)cc2C=Cc2cc(-c3ccc(N(c4ccccc4)c4ccccc4)cc3)ccc21
- absorption maximum (in ClCCl): 390 nm

SMILES: CN1C(C(=O)Nc2ccccn2)=C([O-])c2sccc2S1(=O)=O
- absorption maximum (in CC#N): 382 nm
- absorption maximum (in CCCCO): 377 nm
- absorption maximum (in CCCO): 376 nm
- absorption maximum (in CCO): 375 nm
- absorption maximum (in CO): 373 nm

SMILES: c1cc2c(N3CCCCC3)c3ccc(=[N+]4CCCCC4)cc-3oc2cc1N1CCCCC1
- absorption maximum (in ClCCl): 491 nm

SMILES: c1ccc(N(c2ccccc2)c2ccc(N(c3ccccc3)c3ccc4ccc5c(N(c6ccccc6)c6ccc(N(c7ccccc7)c7ccccc7)cc6)ccc6ccc3c4c65)cc2)cc1
- absorption maximum (in ClCCl): 438 nm

SMILES: O=Cc1ccc2nc(C#Cc3ccc(N(c4ccc(C#Cc5nc6ccc(C=O)cc6s5)cc4)c4ccc(C#Cc5nc6ccc(C=O)cc6s5)cc4)cc3)sc2c1
- absorption maximum (in Cc1ccccc1): 421 nm

SMILES: COc1ccc(N(c2ccccc2)c2ccccc2)cc1
- absorption maximum (in Cc1ccccc1): 299 nm

SMILES: CCCCCCCCCCCCOc1ccc(C2=C3C(=O)N(CC(OCC)OCC)C(c4ccc(OCCCCCCCCCCCC)c(OCCCCCCCCCCCC)c4)=C3C(=O)N2CC(OCC)OCC)cc1OCCCCCCCCCCCC
- absorption maximum (in ClC(Cl)Cl): 496 nm

SMILES: c1ccc(N(c2ccccc2)c2ccc(-c3ccc(-c4ccc(-c5ccc(-c6ccc(N(c7ccccc7)c7ccccc7)cc6)s5)c5nsnc45)s3)cc2)cc1
- absorption maximum (in ClC(Cl)Cl): 530 nm

SMILES: Nc1n[n+]([O-])c2ccccc2[n+]1[O-]
- absorption maximum (in CC#N): 477 nm
- absorption maximum (in O): 457 nm

SMILES: CCCCC1C(=O)c2cc(Oc3ccc(C(C)(C)C)cc3)c3c4c(Oc5ccc(C(C)(C)C)cc5)cc5c6c(cc(Oc7ccc(C(C)(C)C)cc7)c(c7c(Oc8ccc(C(C)(C)C)cc8)cc(c2c37)C1=O)c64)C1=C(C5=O)c2ccc3ccccc3[n+]2[B-](F)(F)O1 (stereo not given)
- absorption maximum (in ClCCl): 616 nm

SMILES: Cc1cc(-c2nc3c4ccccc4c4ccccc4c3n2-c2ccc(C(C)(C)C)cc2)ccc1-c1ccc(-c2c(-c3ccccc3)nc3ccccn23)cc1
- absorption maximum (in ClCCl): 364 nm

SMILES: C(#Cc1ccc(-n2c3ccccc3c3ccccc32)cc1)c1ccccc1
- absorption maximum (in CC#N): 324 nm
- absorption maximum (in CCCCC): 323 nm
- absorption maximum (in CO): 322 nm
- absorption maximum (in Cc1ccccc1): 329 nm
- absorption maximum (in ClC(Cl)Cl): 326 nm
- absorption maximum (in ClCCl): 326 nm

SMILES: CCC1(CC)c2cc(B(c3c(C)cc(C)cc3C)c3c(C)cc(C)cc3C)ccc2-c2c1c1c(c3c2C(CC)(CC)c2cc(B(c4c(C)cc(C)cc4C)c4c(C)cc(C)cc4C)ccc2-3)C(CC)(CC)c2cc(B(c3c(C)cc(C)cc3C)c3c(C)cc(C)cc3C)ccc2-1
- absorption maximum (in C1CCOC1): 362 nm
- absorption maximum (in CC#N): 359 nm
- absorption maximum (in CC(C)=O): 360 nm
- absorption maximum (in CCCCCC): 362 nm
- absorption maximum (in Cc1ccccc1): 364 nm

SMILES: c1ccc2c(c1)-c1ccccc1C21c2cc(-c3ccc(-n4c5ccccc5c5ccccc54)cc3)ccc2Sc2ccc(-c3ccc(-n4c5ccccc5c5ccccc54)cc3)cc21
- absorption maximum (in ClCCl): 341 nm

SMILES: CCCCN1C(=O)c2cc(Br)c3c4c(Br)cc5c6c(cc(Br)c(c7c(Br)cc(c2c37)C1=O)c64)C(=O)N(CCCC)C5=O
- absorption maximum (in ClC(Cl)Cl): 532 nm

SMILES: CCCCCCOc1ccc(N(c2ccc(OCCCCCC)cc2)c2ccc(-c3sc(-c4ccc(N(c5ccc(OCCCCCC)cc5)c5ccc(OCCCCCC)cc5)cc4)c4nc(-c5ccc(OC)cc5)c(-c5ccc(OC)cc5)nc34)cc2)cc1
- absorption maximum (in ClCCl): 590 nm
